Common to all, as to type: physicochemical
A short description of data set [1]: Comparison of solubility of compound Z and its salts. An excerpt: An appropriate amount of the sample was weighed in a glass test tube and a selected solvent was gradually added therein to observe the clarification.
Data set [2] can be described thus: Chemical stability by stress testing (high temperature, high humidity, illumination). The text has this: The chemical stability of the basic compound Z prepared in Example 16 and the salts of compound Z prepared in Examples 5, 9 and 10 was compared through a stress testing, the results were shown in the table below: […]
The nature of data set [3]: Comparison of compound appearance and characters (odor). An excerpt:
The appearance and characters of the basic compound Z prepared in Example 16 and different salts of compound Z prepared in Examples 1-2, 5-6, 9 were observed, the results are shown in the table below: […]

Data set [4] can be described thus: Hygroscopicity of solid forms of hydrochlorate of compound Z. The text has this:
The properties of crystalline form A prepared in Examples 11 or 12, crystalline form B prepared in Example 14 and amorphous substance prepared in Example 15 were compared, the results were shown in the following table 6.

Where [5] appears, read: selected solvent of pH 2 (composition not named), simulated gastric fluid, thermodynamic from solid, pH = 2, read-out: Solubility.
Setting [6] is: selected solvent of pH 4.5 (composition not named), aqueous buffer, thermodynamic from solid, pH = 4.5, read-out: Solubility.
Where [7] appears, read: selected solvent of pH 6.8 (composition not named), aqueous buffer, thermodynamic from solid, pH = 6.8, read-out: Solubility.
Where [8] appears, read: thermodynamic from solid, water (deionized), read-out: Solubility.
[9] abbreviates: High humidity (25° C., 92.5% RH), 5 days.
Where [10] appears, read: High humidity (25° C., 92.5% RH), 10 days.
Setting [11] is: high temperature (60° C.), 5 days.
Where [12] appears, read: high temperature (60° C.), 10 days.
Where [13] appears, read: illumination (4500 lx ± 500 lx), 5 days.
The mark [14] stands for this setting: illumination (4500 lx ± 500 lx), 10 days.

Entries after “also recorded” stand apart in the source; their conditions may differ. Like-named read-outs stand apart in the source and are kept apart here.

In general, solubility refers to the dissolved amount per volume that the medium holds.

For `CCCOc1ccc(NC(=O)CN2CCN(C)CC2)cc1-c1nc(CC)c(CC)c(=O)[nH]1.O=S(=O)(O)O` [sulfate of compound Z, 5,6-diethyl-2-[2-n-propoxy-5-(2-(4-methylpiperazin-1-yl)acetamido)phenyl]pyrimidin-4(3H)-one Sulfate], the solubility was more than 20.2 mg/mL in data set [1] (setting [5]), more than 25.6 mg/mL in data set [1] (setting [6]), more than 24.4 mg/mL in data set [1] (setting [7]) and more than 20.6 mg/mL in data set [1] (setting [8]). For the same compound, the characters result in data set [2] (0 days) was “Yellow”; in data set [2] (setting [9]) it was “Yellow powder”; in data set [2] (setting [10]) it was “Yellow powder”; in data set [2] (setting [11]), “Yellow”; in data set [2] (setting [12]), “Yellow”; in data set [2] (setting [13]), “Yellow”. In addition, the characters entry in data set [2] (setting [14]) is on record as “Gray-yellow”. The purity is reported as 99.63% in data set [2] (0 days); 99.64% in data set [2] (setting [9]); 99.62% in data set [2] (setting [10]); 99.59% in data set [2] (setting [11]); 99.64% in data set [2] (setting [12]); 97.43% in data set [2] (setting [13]). This compound had a purity in data set [2] (setting [14]) of 96.99%.

On to `CCCOc1ccc(NC(=O)CN2CCN(C)CC2)cc1-c1nc(CC)c(CC)c(=O)[nH]1.O=C(O)C(O)C(O)C(=O)O` [tartrate of compound Z, 5,6-diethyl-2-[2-n-propoxy-5-(2-(4-methylpiperazin-1-yl)acetamido)phenyl]pyrimidin-4(3H)-one Tartrate], for which the solubility is more than 219 mg/mL in data set [1] (setting [5]), more than 155 mg/mL in data set [1] (setting [6]), more than 130 mg/mL in data set [1] (setting [7]) and more than 153 mg/mL in data set [1] (setting [8]). Also, the odor entry in data set [3] is given as “No bad smell”.

In the case of `CCCOc1ccc(NC(=O)CN2CCN(C)CC2)cc1-c1nc(CC)c(CC)c(=O)[nH]1.O=C(O)/C=C\C(=O)O` [maleate of compound Z, 5,6-diethyl-2-[2-n-propoxy-5-(2-(4-methylpiperazin-1-yl)acetamido)phenyl]pyrimidine-4(3H)-one Maleate], the solubility in data set [1] (setting [5]) was 6.1 mg/mL; in data set [1] (setting [6]), 21.4 mg/mL; in data set [1] (setting [7]), 46.4 mg/mL; in data set [1] (setting [8]), 5.8 mg/mL. For the same compound, the odor result in data set [3] is “No bad smell”.

As to `CCCOc1ccc(NC(=O)CN2CCN(C)CC2)cc1-c1nc(CC)c(CC)c(=O)[nH]1.O=C(O)CCC(=O)O` [succinate of compound Z, 5,6-diethyl-2-[2-n-propoxy-5-(2-(4-methylpiperazin-1-yl)acetamido)phenyl]pyrimidin-4(3H)-one Succinate], the solubility is more than 20.8 mg/mL in data set [1] (setting [5]), more than 22 mg/mL in data set [1] (setting [6]), more than 20.8 mg/mL in data set [1] (setting [7]) and more than 24.8 mg/mL in data set [1] (setting [8]). For the same compound, in data set [3], the odor result was “No bad smell”.

Regarding `CCCOc1ccc(NC(=O)CN2CCN(C)CC2)cc1-c1nc(CC)c(CC)c(=O)[nH]1.Cl` [Amorphous, 5,6-diethyl-2-[2-n-propoxy-5-(2-(4-methylpiperazin-1-yl)acetamido)phenyl]pyrimidin-4(3H)-one Hydrochloride (Amorphous)], the “hygroscopicity, water absorption” value in data set [4] (65% RH) is 65% RH, water absorption 16.53%; in data set [4] (80% RH) it was 80% RH, water absorption 6.74%.

Take `CCCOc1ccc(NC(=O)CN2CCN(C)CC2)cc1-c1nc(CC)c(CC)c(=O)[nH]1.O=C(O)[C@@H](O)[C@H](O)[C@H](O)[C@@H](O)C(=O)O` [mucate of compound Z, 5,6-diethyl-2-[2-n-propoxy-5-(2-(4-methylpiperazin-1-yl)acetamido)phenyl]pyrimidin-4(3H)-one Mucate]: the solubility in data set [1] (pH = 2) was 36.3 mg/mL; in data set [1] (pH = 4.5), 62.7 mg/mL; in data set [1] (pH = 6.8) it was 39.0 mg/mL; in data set [1] (water (deionized)), 10.6 mg/mL.

Take `CCCOc1ccc(NC(=O)CN2CCN(C)CC2)cc1-c1nc(CC)c(CC)c(=O)[nH]1.O=C(O)/C=C/C(=O)O` [fumarate of compound Z, 5,6-diethyl-2-[2-n-propoxy-5-(2-(4-methylpiperazin-1-yl)acetamido)phenyl]pyrimidin-4(3H)-one Fumarate]: the solubility is more than 24.2 mg/mL in data set [1] (setting [5]), more than 20.2 mg/mL in data set [1] (setting [6]), more than 27 mg/mL in data set [1] (setting [7]) and more than 26.6 mg/mL in data set [1] (setting [8]).

`CC(=O)O.CCCOc1ccc(NC(=O)CN2CCN(C)CC2)cc1-c1nc(CC)c(CC)c(=O)[nH]1` [acetate of compound Z, 5,6-diethyl-2-[2-n-propoxy-5-(2-(4-methylpiperazin-1-yl)acetamido)phenyl]pyrimidin-4(3H)-one Acetate]: the solubility was 35.8 mg/mL in data set [1] (setting [5]), more than 102 mg/mL in data set [1] (setting [6]), 22.6 mg/mL in data set [1] (setting [7]) and 14 mg/mL in data set [1] (setting [8]).

On to `CCCOc1ccc(NC(=O)CN2CCN(C)CC2)cc1-c1nc(CC)c(CC)c(=O)[nH]1` [compound Z, 5,6-diethyl-2-[2-n-propoxy-5-(2-(4-methylpiperazin-1-yl)acetamido)phenyl]pyrimidin-4(3H)-one], for which the “solubility, in words” value in data set [1] is “poor solubility in water; also recorded: significantly lower”. Also, the solubility in data set [1] (setting [5]) is 5.3 mg/mL; in data set [1] (setting [6]), 38.1 mg/mL; in data set [1] (setting [7]), 1.7 mg/mL; in data set [1] (setting [8]), 1.5 mg/mL. The odor entry in data set [3] is given as “Pungent odor”. Further, the characters result is given as “White” in data set [2] (0 days); “White” in data set [2] (setting [9]); “White” in data set [2] (setting [10]); “White” in data set [2] (setting [11]); “White” in data set [2] (setting [12]); “Yellowish” in data set [2] (setting [13]). Besides, in data set [2] (setting [14]), the characters entry was “Yellowish”. Further, the purity is listed as 99.6% in data set [2] (0 days); 99.64% in data set [2] (setting [9]); 99.53% in data set [2] (setting [10]); 99.69% in data set [2] (setting [11]); 99.36% in data set [2] (setting [12]); 99.37% in data set [2] (setting [13]). For the same compound, the “stability, in words” value in data set [2] (high temperature, light and high humidity conditions) is listed as “relatively poor”.

`CCCOc1ccc(NC(=O)CN2CCN(C)CC2)cc1-c1nc(CC)c(CC)c(=O)[nH]1.Cl` [form B, 5,6-diethyl-2-[2-n-propoxy-5-(2-(4-methylpiperazin-1-yl)acetamido)phenyl]pyrimidin-4(3H)-one Hydrochlorate (Form B)]: the “hygroscopicity, water absorption” value in data set [4] (65% RH) was 65% RH, water absorption 3.58%; in data set [4] (80% RH), 80% RH, water absorption 11.3%.

As to `CCCOc1ccc(NC(=O)CN2CCN(C)CC2)cc1-c1nc(CC)c(CC)c(=O)[nH]1.CS(=O)(=O)O` [methanesulfonate of compound Z, 5,6-diethyl-2-[2-n-propoxy-5-(2-(4-methylpiperazin-1-yl)acetamido)phenyl]pyrimidin-4(3H)-one Methanesulfonate], the solubility in data set [1] (setting [5]) was more than 22.4 mg/mL; in data set [1] (setting [6]), more than 25.4 mg/mL; in data set [1] (setting [7]) it was more than 23.2 mg/mL; in data set [1] (setting [8]) it was more than 23.8 mg/mL. For the same compound, the odor entry in data set [3] was “No bad smell”. In addition, the characters result in data set [2] (0 days) is given as “White”; in data set [2] (setting [9]), “Yellow”; in data set [2] (setting [10]) it was “Yellow”; in data set [2] (setting [11]), “White”; in data set [2] (setting [12]), “White”; in data set [2] (setting [13]), “White”. Besides, in data set [2] (setting [14]), the characters result was “White”. Besides, the purity came to 99.66% in data set [2] (0 days); 99.54% in data set [2] (setting [9]); 99.55% in data set [2] (setting [10]); 99.54% in data set [2] (setting [11]); 99.49% in data set [2] (setting [12]); 99.72% in data set [2] (setting [13]). In data set [2] (setting [14]), this compound returned a purity of 99.46%.

The record behind these values is patent publication US11434226B2, “Salt and polymorph of benzopyrimidinone compound and pharmaceutical composition and use thereof” (SHANGHAI INSTITUTE OF MATERIA MEDICA, CHINESE ACADEMY OF …, priority 2017, dated 2022).
